Measured values taken from patent US11878063B2, “Engineered ligands and uses thereof” (Children's Medical Center Corporation, priority 2019, dated 2024).

Legend:
[1] = biological target: T1, rat PTHR1 (Rattus norvegicus, UniProt P25961); assay: cAMP induction in HEK293 cells stably expressing rat PTHR1; format: cell-based; conditions: maximal cAMP response, normalized
T1 construct: expressed in transfected cells
T1 sequence (P25961 27-591): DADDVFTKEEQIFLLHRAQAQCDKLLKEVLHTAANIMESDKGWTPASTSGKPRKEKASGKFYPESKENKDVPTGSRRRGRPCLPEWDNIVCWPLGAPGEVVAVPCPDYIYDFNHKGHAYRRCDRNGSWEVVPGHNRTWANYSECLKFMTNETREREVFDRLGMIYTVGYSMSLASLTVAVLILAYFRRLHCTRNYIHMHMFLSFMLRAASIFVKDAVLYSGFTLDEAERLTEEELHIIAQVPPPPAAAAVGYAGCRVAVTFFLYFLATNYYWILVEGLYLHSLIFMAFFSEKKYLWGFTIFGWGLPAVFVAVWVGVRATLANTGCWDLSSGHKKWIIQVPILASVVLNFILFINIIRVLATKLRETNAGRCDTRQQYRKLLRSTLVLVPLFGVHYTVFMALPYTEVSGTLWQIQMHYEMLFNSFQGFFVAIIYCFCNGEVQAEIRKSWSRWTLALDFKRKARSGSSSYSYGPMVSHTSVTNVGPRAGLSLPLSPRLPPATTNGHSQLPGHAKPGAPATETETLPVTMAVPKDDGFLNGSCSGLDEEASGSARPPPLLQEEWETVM
Description: (§1) Measurement of cAMP response. These assays were performed as previously described^27. […] Confluent monolayers of cells were pre-incubated with CO2 independent medium containing D-luciferin (0.5 mM) at 37° C. until a stable baseline level of luminescence was established (20 min). Varying concentrations of ligands were then added, and the time course of luminescence response was recorded using BioTek plate reader.
(§2) Data calculations. Data were processed using Microsoft Excel and GraphPad Prism 6. Data from cAMP dose-response assays were analyzed using a sigmoidal dose-response model with variable slope. Data sets were statistically compared by using Student's t test (two-tailed) assuming unequal variances for the two sets.

[2] = biological target: T2, PTHR2 (Homo sapiens, UniProt P49190); assay: cAMP induction in HEK293 cells stably expressing human PTHR2; format: cell-based; conditions: maximal cAMP response, normalized
T2 construct: expressed in transfected cells
T2 sequence (P49190 25-550): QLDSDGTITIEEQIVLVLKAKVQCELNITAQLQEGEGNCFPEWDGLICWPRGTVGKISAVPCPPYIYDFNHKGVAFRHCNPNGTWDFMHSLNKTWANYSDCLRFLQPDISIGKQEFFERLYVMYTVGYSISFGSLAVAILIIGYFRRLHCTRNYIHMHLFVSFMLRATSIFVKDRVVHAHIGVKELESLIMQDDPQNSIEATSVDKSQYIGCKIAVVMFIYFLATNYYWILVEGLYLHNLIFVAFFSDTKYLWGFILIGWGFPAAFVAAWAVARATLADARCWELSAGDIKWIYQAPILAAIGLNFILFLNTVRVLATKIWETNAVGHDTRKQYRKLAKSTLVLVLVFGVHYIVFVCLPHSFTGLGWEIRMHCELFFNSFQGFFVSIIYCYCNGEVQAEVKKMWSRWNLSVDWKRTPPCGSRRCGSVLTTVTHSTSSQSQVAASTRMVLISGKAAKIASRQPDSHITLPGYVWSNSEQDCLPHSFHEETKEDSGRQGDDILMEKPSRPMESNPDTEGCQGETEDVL
Description: as §1, §2

[3] = test system: Mice (CD1 female); assay: Calcemic response: blood ionized calcium in mice after subcutaneous injection; format: in vivo, mouse; conditions: 35 nmol/kg subcutaneous
Description: Animal experiments and measurement of in vivo response. Mice (CD1 female, age 11 weeks) were treated in accordance with the ethical guidelines adopted by Massachusetts General Hospital. […] Peptides and conjugates were administered at doses that allowed for differentiation between compounds with differing levels of in vivo activity^27. Statistical analyses were performed assuming Gaussian distribution of data. Mice (n=4 per compound) were injected subcutaneously with vehicle (10 mM citric acid/150 mM NaCl/0.05% Tween-80, pH 5.0) or vehicle containing PTH or conjugate at a dose of 35 nmol/kg body weight. […] Blood was withdrawn just before injection (t=0) or at times thereafter. Tail vein blood was collected and immediately analyzed. Blood Ca^2+ concentration was measured with a Siemens RapidLab 348 Ca2+/pH analyzer.

[4] = biological target: T3, PTHR16E (Homo sapiens, UniProt Q03431, A83I/D81R/G76A/K80A/K82Q/P78E/R79L/S71Q/S73D/S75E/T74Q); assay: cAMP induction in HEK293 cells stably expressing PTHR16E (6E/Ubc6e epitope tag in exon 2 segment); format: cell-based; conditions: maximal cAMP response, normalized
T3 construct: expressed in transfected cells
T3 sequence (Q03431 27-593 S71Q/S73D/T74Q/S75E/G76A/P78E/R79L/K80A/D81R/K82Q/A83I): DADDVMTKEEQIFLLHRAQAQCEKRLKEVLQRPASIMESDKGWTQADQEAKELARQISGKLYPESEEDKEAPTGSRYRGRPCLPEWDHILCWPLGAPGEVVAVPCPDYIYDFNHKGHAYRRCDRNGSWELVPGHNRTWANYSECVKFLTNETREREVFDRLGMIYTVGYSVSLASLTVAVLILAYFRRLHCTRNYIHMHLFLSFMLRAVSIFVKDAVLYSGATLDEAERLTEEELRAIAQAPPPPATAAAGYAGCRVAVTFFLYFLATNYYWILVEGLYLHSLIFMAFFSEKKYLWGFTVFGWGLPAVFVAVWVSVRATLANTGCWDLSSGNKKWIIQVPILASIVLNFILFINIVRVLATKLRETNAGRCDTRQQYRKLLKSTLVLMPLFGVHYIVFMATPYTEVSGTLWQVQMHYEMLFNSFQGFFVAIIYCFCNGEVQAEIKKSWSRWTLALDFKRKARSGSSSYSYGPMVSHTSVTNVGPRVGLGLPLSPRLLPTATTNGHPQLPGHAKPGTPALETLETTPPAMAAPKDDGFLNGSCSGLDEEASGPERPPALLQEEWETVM
Description: Measurement of cAMP response. These assays were performed as previously described^27. Briefly, HEK-293-derived cell lines that stably express the Glosensor cAMP reporter (Promega Corp.)^30 and PTHR1, a PTHR1 variant, or PTHR2 were seeded into white sided 96 well plates (50,000 cells/well) and grown to confluency. Confluent monolayers of cells were pre-incubated with CO2 independent medium containing D-luciferin (0.5 mM) at 37° C. until a stable baseline level of luminescence was established (20 min). Varying concentrations of ligands were then added, and the time course of luminescence response was recorded using BioTek plate reader.
as §2
The portion of PTHR1 encoded by exon 2 is not resolved in structural studies (FIG. 12—Panel d)^13, 14, 17, is not important for ligand binding^18, and in past work has been targeted as a site for receptor modification^18, 19. A construct was generated that encodes a PTHR1 variant in which a 14-residue fragment from exon 2 was replaced with a 14-mer epitope tag from the intracellular protein UBC6e (PTHR16E, FIG. 12—Panel d)^20. A receptor construct in which a pH-sensitive green fluorescent protein variant (GFP) was inserted into the portion of the receptor encoded by exon 2 (PTHR1GFP in FIGS. 17A to 17C)^19. Another version of PTHR1 in which yellow fluorescent protein (YFP) replaces the entire extracellular domain (PTHR1YFPΔECD, FIG. 12—Panel e)^21, was also used.

CC[C@H](C)[C@H](NC(=O)[C@H](CCC(=O)O)NC(=O)[C@H](CO)NC(=O)[C@@H](NC(=O)[C@@H](N)CO)C(C)C)C(=O)N[C@@H](CCC(N)=O)C(=O)N[C@@H](CC(C)C)C(=O)N[C@@H](CCSC)C(=O)N[C@@H](Cc1cnc[nH]1)C(=O)N[C@@H](CC(N)=O)C(=O)N[C@@H](CC(C)C)C(=O)NCC(=O)N[C@@H](CCCCN)C(=O)N[C@@H](Cc1cnc[nH]1)C(=O)N[C@@H](CC(C)C)C(=O)N[C@@H](CC(N)=O)C(=O)N[C@@H](CO)C(=O)N[C@@H](CCSC)C(=O)N[C@@H](CCC(=O)O)C(=O)N[C@@H](CCCN=C(N)N)C(=O)N[C@H](C(=O)N[C@@H](CCC(=O)O)C(=O)N[C@@H](Cc1c[nH]c2ccccc12)C(=O)N[C@@H](CC(C)C)C(=O)N[C@@H](CCCN=C(N)N)C(=O)N[C@@H](CCCCN)C(=O)N[C@@H](CCCCN)C(=O)N[C@@H](CC(C)C)C(=O)N[C@@H](CCC(N)=O)C(=O)N[C@@H](CC(=O)O)C(=O)N[C@H](C(=O)N[C@@H](Cc1cnc[nH]1)C(=O)N[C@@H](CC(N)=O)C(=O)N[C@@H](Cc1ccccc1)C(=O)O)C(C)C)C(C)C [PTH(1-34)]
Max (normalized ± SD), rPTHR1 [1]: 1.00 ± 0.00
Max (normalized ± SD), hPTHR2 [2]: 1 ± 0
time of peak blood ionized calcium after injection [3]: 1 to 2 h
blood ionized calcium response ([3]; n=4): strong increase
Max (normalized ± SD), hPTHR16E [4]: 1 ± 0.0
